A short description of data set [1]: Single dose oral pharmacokinetic study. Also on record: species or system mice. The following applies: mouse, in vivo. On the procedure: The test item was administered through oral route to animals (rat/mice) at 30 mg/kg dose in a suitable vehicle at 10 ml/kg dose volume. Blood samples (˜50 uL at each time point) were collected from retro-orbital plexus using K3 EDTA as anticoagulant in eppendorf tubes at defined time intervals under light ether anesthesia. The samples were centrifuged at 3500×g to separate plasma and stored at −80° C. until analysis.
Sample analysis: Test samples were analyzed using LC-MS-MS after developing fit-for-purpose method for each of test compound.

The subject of data set [2] is HIV-1 strains, for e.g., 92HT599. Briefly: Antiviral activity: p24 estimation in HIV-1 infected MT-2 cells. Type of data set: cell-based. The following applies: for pIC50: Human immunodeficiency virus 1, MT2, MT-2 cells, p24, read-out: Antiviral activity IC50. The procedure: MT-2 cells were infected with required number of TCID50's of HIV-1 strains, for e.g., 92HT599. The infected cells were plated at the concentration of 30,000 cells per well in a 96 well plate. Test compound was added to the 96 well plate with the final concentration of DMSO (vehicle—not more than 1%). The plates are then incubated in a CO2 incubator for ˜96 hours (˜4 days) for viral infection. At the end of incubation period an aliquot from each well was taken for p24 estimation. The quantitation of p24 is an estimated index for antiviral activity of the compound. Percent inhibition was calculated with reference to control values (vehicle controls).
p-24 estimation was carried out using Advance biosciences kit as per the procedure detailed by supplier.

Molecules are shown by their SMILES. pIC50: −log10 of the molar value. Where two headings read alike, the source gives them in different places.

For orientation: AUC(0-t) means the area under the concentration-time curve up to a stated or last time point. As usually defined, the Cmax is the highest concentration seen after dosing. One may read the pIC50 as the IC50 on a negative log10 scale, so that one unit is a factor of ten. As to `C=C(C)[C@@H]1CC[C@]2(C(=O)N3CCC[C@H]3c3nc(-c4ccccc4)cn3CCN(C)C)CC[C@]3(C)[C@H](CC[C@@H]4[C@@]5(C)CC[C@H](OC(=O)CC(C)(C)C(=O)O)C(C)(C)[C@@H]5CC[C@]43C)[C@@H]12` [Compound 16, 4-(((1R,3aS,5aR,5bR,7aR,9S,11aR,11bR,13aR,13bR)-3a-((S)-2-(1-(2-(dimethylamino)ethyl)-4-phenyl-1H-imidazol-2-yl)pyrrolidine-1-carbonyl)-5a,5b,8,8,11a-pentamethyl-1-(prop-1-en-2-yl)icosahydro-1H-cyclopenta[a]chrysen-9-yl)oxy)-2,2-dimethyl-4-oxo butanoic acid], in data set [1] (po, 30 mg/kg), the AUC(0-t) stood at 294 µg·h/mL and the peak level (Cmax) was 9030 ng/mL. In data set [2], the pIC50 is 8.07.
The matching figures for `C=C(C)[C@@H]1CC[C@]2(C(=O)N3CCC[C@H]3c3nc(-c4ccccc4)cn3CCOC)CC[C@]3(C)[C@H](CC[C@@H]4[C@@]5(C)CC[C@H](OC(=O)CC(C)(C)C(=O)O)C(C)(C)[C@@H]5CC[C@]43C)[C@@H]12` [Compound 17, 4-(((1R,3aS,5aR,5bR,7aR,9S,11aR,11bR,13aR,13bR)-3a-((S)-2-(1-(2-methoxyethyl)-4-phenyl-1H-imidazol-2-yl)pyrrolidine-1-carbonyl)-5a,5b,8,8,11a-pentamethyl-1-(prop-1-en-2-yl)icosahydro-1H-cyclopenta[a]chrysen-9-yl)oxy)-2,2-dimethyl-4-oxobutanoic acid]: 271 µg·h/mL, 13000 ng/mL and 9.52.
On to `C=C(C)[C@@H]1CC[C@]2(C(=O)N3CCC[C@H]3c3nc(-c4ccncc4)cn3CCN(C)C)CC[C@]3(C)[C@H](CC[C@@H]4[C@@]5(C)CC[C@H](OC(=O)[C@H]6C[C@@H](C(=O)O)C6(C)C)C(C)(C)[C@@H]5CC[C@]43C)[C@@H]12` [Compound 8, (1R,3S)-3-((((1R,3aS,5aR,5bR,7aR,9S,11aR,11bR,13aR,13bR)-3a-((S)-2-(1-(2-(dimethylamino)ethyl)-4-(pyridin-4-yl)-1H-imidazol-2-yl)pyrrolidine-1-carbonyl)-5a,5b,8,8,11a-pentamethyl-1-(prop-1-en-2-yl)icosahydro-1H-cyclopenta[a]chrysen-9-yl)oxy)carbonyl)-2,2-dimethyl cyclobutane-1-carboxylic acid], for which, in data set [1] (po, 30 mg/kg), the AUC(0-t) came to 243 µg·h/mL and the peak level (Cmax) was 9080 ng/mL. Also, the pIC50 in data set [2] was 7.90.
The matching figures for `C=C(C)[C@@H]1CC[C@]2(C(=O)N3CCC[C@H]3c3nc(C(C)(C)C)cn3CCN(C)C)CC[C@]3(C)[C@H](CC[C@@H]4[C@@]5(C)CC[C@H](OC(=O)[C@H]6C[C@@H](C(=O)O)C6(C)C)C(C)(C)[C@@H]5CC[C@]43C)[C@@H]12` [Compound 11, (1R,3S)-3-((((1R,3aS,5aR,5bR,7aR,9S,11aR,11bR,13aR,13bR)-3a-((S)-2-(4-(tert-butyl)-1-(2-(dimethylamino)ethyl)-1H-imidazol-2-yl)pyrrolidine-1-carbonyl)-5a,5b,8,8,11a-pentamethyl-1-(prop-1-en-2-yl)icosahydro-1H-cyclopenta[a]chrysen-9-yl)oxy)carbonyl)-2,2-dimethyl cyclobutane-1-carboxylic acid]: 755 µg·h/mL, 18100 ng/mL and 8.45.
In data set [1] (po, 30 mg/kg), `C=C(C)[C@@H]1CC[C@]2(C(=O)N3CCC[C@H]3c3nc(-c4ccncc4)cn3CCN3CCCC3)CC[C@]3(C)[C@H](CC[C@@H]4[C@@]5(C)CC[C@H](OC(=O)[C@H]6C[C@@H](C(=O)O)C6(C)C)C(C)(C)[C@@H]5CC[C@]43C)[C@@H]12` [Compound 9, (1R,3S)-2,2-dimethyl-3-((((1R,3aS,5aR,5bR,7aR,9S,11aR,11bR,13aR,13bR)-5a,5b,8,8,11a-pentamethyl-1-(prop-1-en-2-yl)-3a-((S)-2-(4-(pyridin-4-yl)-1-(2-(pyrrolidin-1-yl)ethyl)-1H-imidazol-2-yl)pyrrolidine-1-carbonyl)icosahydro-1H-cyclopenta[a]chrysen-9-yl)oxy)carbonyl) cyclobutane-1-carboxylic acid] displayed an AUC(0-t) of 260 µg·h/mL and a Cmax of 6900 ng/mL. The pIC50 in data set [2] is 7.98.
In data set [1] (po, 30 mg/kg), `C=C(C)[C@@H]1CC[C@]2(C(=O)N3C[C@H](OCCOC)C[C@H]3c3nc(-c4ccccc4)cn3CCN(C)C)CC[C@]3(C)[C@H](CC[C@@H]4[C@@]5(C)CC[C@H](OC(=O)[C@H]6C[C@@H](C(=O)O)C6(C)C)C(C)(C)[C@@H]5CC[C@]43C)[C@@H]12` [Compound 25, (1R,3S)-3-((((1R,3aS,5aR,5bR,7aR,9S,11aR,11bR,13aR,13bR)-3a-((2S,4R)-2-(1-(2-(dimethylamino)ethyl)-4-phenyl-1H-imidazol-2-yl)-4-(2-methoxyethoxy)pyrrolidine-1-carbonyl)-5a,5b,8,8,11a-pentamethyl-1-(prop-1-en-2-yl)icosahydro-1H-cyclopenta[a]chrysen-9-yl)oxy)carbonyl)-2,2-dimethylcyclobutane-1-carboxylic acid] had an area under the curve AUC(0-t) of 617 µg·h/mL and a Cmax of 17600 ng/mL.
In data set [1] (po, 30 mg/kg), `C=C(C)[C@@H]1CC[C@]2(C(=O)N3CCC[C@H]3c3nc(-c4ccccc4)cn3C)CC[C@]3(C)[C@H](CC[C@@H]4[C@@]5(C)CC[C@H](OC(=O)[C@H]6C[C@@H](C(=O)O)C6(C)C)C(C)(C)[C@@H]5CC[C@]43C)[C@@H]12` [Compound 1, (1R,3S)-2,2-dimethyl-3-((((1R,3aS,5aR,5bR,7aR,9S,11aR,11bR,13aR,13bR)-5a,5b,8,8,11a-pentamethyl-3a-((S)-2-(1-methyl-4-phenyl-1H-imidazol-2-yl)pyrrolidine-1-carbonyl)-1-(prop-1-en-2-yl)icosahydro-1H-cyclopenta[a]chrysen-9-yl)oxy)carbonyl)cyclobutane-1-carboxylic acid] displayed an AUC(0-t) of 250 µg·h/mL and a Cmax of 8540 ng/mL. In data set [2], the pIC50 is 8.17.
In the case of `C=C(C)[C@@H]1CC[C@]2(C(=O)N3CCC[C@H]3c3nc(-c4ccccc4)cn3CCOC)CC[C@]3(C)[C@H](CC[C@@H]4[C@@]5(C)CC[C@H](OC(=O)[C@H]6C[C@@H](C(=O)O)C6(C)C)C(C)(C)[C@@H]5CC[C@]43C)[C@@H]12` [Compound 4, (1R,3S)-3-((((1R,3aS,5aR,5bR,7aR,9S,11aR,11bR,13aR,13bR)-3a-((S)-2-(1-(2-methoxyethyl)-4-phenyl-1H-imidazol-2-yl)pyrrolidine-1-carbonyl)-5a,5b,8,8,11a-pentamethyl-1-(prop-1-en-2-yl)icosahydro-1H-cyclopenta[a]chrysen-9-yl)oxy)carbonyl)-2,2-dimethylcyclobutane-1-carboxylic acid], in data set [1] (po, 30 mg/kg), the exposure AUC(0-t) is 291 µg·h/mL and the Cmax stood at 9220 ng/mL.
As usually defined, the IC50 is the concentration that gives 50% inhibition. Regarding `C=C(C)[C@@H]1CC[C@]2(C(=O)N3CCC[C@H]3c3nc(-c4ccccc4)cn3CCP(=O)(OCC)OCC)CC[C@]3(C)[C@H](CC[C@@H]4[C@@]5(C)CC[C@H](OC(=O)[C@H]6C[C@@H](C(=O)O)C6(C)C)C(C)(C)[C@@H]5CC[C@]43C)[C@@H]12` [Compound 22, (1R,3S)-3-((((1R,3aS,5aR,5bR,7aR,9S,11aR,11bR,13aR,13bR)-3a-((S)-2-(1-(2-(diethoxyphosphoryl)ethyl)-4-phenyl-1H-imidazol-2-yl)pyrrolidine-1-carbonyl)-5a,5b,8,8,11a-pentamethyl-1-(prop-1-en-2-yl)icosahydro-1H-cyclopenta[a]chrysen-9-yl)oxy)carbonyl)-2,2-dimethyl cyclobutane-1-carboxylic acid], the AUC(0-t) in data set [1] (Mice oral PK @30 mg/kg, plasma, read-out: AUC 0-t) worked out at 215 µg·h/mL. Moreover, the Cmax in data set [1] (Mice oral PK @30 mg/kg, plasma, read-out: Cmax) stood at 5830 ng/mL. Also, the IC50 in data set [2] (Human immunodeficiency virus 1, MT2, read-out: Antiviral activity IC50 (nM)) is 14.9 nM.
Consider `C=C(C)[C@@H]1CC[C@]2(C(=O)N3CCC[C@H]3c3nc(-c4ccc(F)cc4)cn3CCN(C)C)CC[C@]3(C)[C@H](CC[C@@H]4[C@@]5(C)CC[C@H](OC(=O)[C@H]6C[C@@H](C(=O)O)C6(C)C)C(C)(C)[C@@H]5CC[C@]43C)[C@@H]12` [Compound 7, (1R,3S)-3-((((1R,3aS,5aR,5bR,7aR,9S,11aR,11bR,13aR,13bR)-3a-((S)-2-(1-(2-(dimethylamino)ethyl)-4-(4-fluorophenyl)-1H-imidazol-2-yl)pyrrolidine-1-carbonyl)-5a,5b,8,8,11a-pentamethyl-1-(prop-1-en-2-yl)icosahydro-1H-cyclopenta[a]chrysen-9-yl)oxy)carbonyl)-2,2-dimethyl cyclobutane-1-carboxylic acid], for which the pIC50 in data set [2] is 7.12.
For `C=C(C)[C@@H]1CC[C@]2(C(=O)N3CCC[C@H]3c3nc(-c4ccccc4)cn3CCOCCOC)CC[C@]3(C)[C@H](CC[C@@H]4[C@@]5(C)CC[C@H](OC(=O)[C@H]6C[C@@H](C(=O)O)C6(C)C)C(C)(C)[C@@H]5CC[C@]43C)[C@@H]12` [Compound 2, (1R,3S)-3-((((1R,3aS,5aR,5bR,7aR,9S,11aR,11bR,13aR,13bR)-3a-((S)-2-(1-(2-(2-methoxyethoxy)ethyl)-4-phenyl-1H-imidazol-2-yl)pyrrolidine-1-carbonyl)-5a,5b,8,8,11a-pentamethyl-1-(prop-1-en-2-yl)icosahydro-1H-cyclopenta[a]chrysen-9-yl)oxy)carbonyl)-2,2-dimethyl cyclobutane-1-carboxylic acid], in data set [1] (po, 30 mg/kg), the AUC(0-t) is 335 µg·h/mL and the Cmax is 11400 ng/mL.
